ChEMBL document CHEMBL6074642, “Natural and Bioinspired Lipidic Alkynylcarbinols as Leishmanicidal, Antiplasmodial, Trypanocidal, Fungicidal, Antibacterial, and Antimycobacterial Agents” (J Nat Prod, 2024)
Values after ≈ are worked out from the molar mass of the structure shown.

Key:
Escherichia coli [1] = assay: Antibacterial activity against Escherichia coli; type: functional
Leishmania donovani [2] = assay: Antileishmanial activity against Leishmania donovani amastigotes infected in J774 macrophage assessed as inhibition of parasite growth incubated for 48 hrs by luciferase assay; type: functional, organism-based; conditions: J774, 48 h
Plasmodium falciparum [3] = assay: Antiplasmodial activity against Plasmodium falciparum assessed as parasite growth inhibition; type: functional, organism-based
Bacillus subtilis [4] = assay: Antibacterial activity against Bacillus subtilis PY79 assessed as reduction in bacterial growth; type: functional, organism-based
Streptococcus pyogenes = assay: Antibacterial activity against Streptococcus pyogenes assessed as bacterial growth inhibition; type: functional
Bacillus subtilis [5] = assay: Antibacterial activity against Bacillus subtilis; type: functional
[6] = system: Mycobacterium tuberculosis; assay: Antimycobacterial activity against Mycobacterium tuberculosis H37Ra ATCC 25177 assessed as reduction in bacterial growth after 7 days by resazurin microtiter assay; type: functional; conditions: H37Ra ATCC 25177, 168 h, time 7 day
Plasmodium falciparum [7] = assay: Antiparasitic activity against Plasmodium falciparum K1 assessed as reduction in parasite growth; type: functional, organism-based
Leishmania donovani [8] = assay: Antileishmanial activity against amastigote form of Leishmania donovani infected in BALB/c mouse assessed as inhibition of parasite growth in liver at 10 mg/kg, po measured for 7 days by geimsa staining based analysis relative to control; type: functional; parameters: scale not given: the % may be the effect or the level left; conditions: time 7 day
Pseudomonas aeruginosa [9] = assay: Antibacterial activity against Pseudomonas aeruginosa assessed as reduction in bacterial growth incubated for 24 hrs by broth microdilution method; type: functional, organism-based
[10] = system: Mycobacterium intracellulare; assay: Antibacterial activity against Mycobacterium intracellulare; type: functional, organism-based
[11] = system: Mycobacterium tuberculosis; assay: Antibacterial activity against Mycobacterium tuberculosis H37Ra assessed as reduction in bacterial growth incubated for 14 days by CLSI protocol based method; type: functional; conditions: 336 h, time 14 day
Staphylococcus aureus [12] = assay: Antibacterial activity against Staphylococcus aureus assessed as reduction in microbial growth by CLSI based broth microdilution method; type: functional
Staphylococcus aureus [13] = assay: Antimicrobial activity against methicillin-resistant Staphylococcus aureus assessed as reduction in microbial growth after 24 to 48 hrs by microdilution susceptibility test; type: functional; conditions: time 24-48 hrs
Bipolaris sorokiniana = assay: Antifungal activity against Cochliobolus sativus; type: functional, organism-based
[14] = system: Colletotrichum gloeosporioides; assay: Antifungal activity against Colletotrichum gloeosporioides; type: functional, organism-based
Alternaria kikuchiana = assay: Antifungal activity against Alternaria kikuchiana; type: functional, organism-based
[15] = system: Mycolicibacterium smegmatis; assay: Antimycobacterial activity against Mycobacterium smegmatis mc2 155 assessed as reduction in bacterial growth; type: functional
[16] = system: Mycolicibacterium smegmatis; assay: Antimycobacterial activity against Mycobacterium smegmatis ATCC 14468; type: functional
Mycolicibacterium phlei = assay: Antimycobacterial activity against Mycobacterium phlei ATCC 11758; type: functional
Mycolicibacterium aurum = assay: Antimycobacterial activity against Mycobacterium aurum; type: functional
[17] = system: Mycolicibacterium fortuitum; assay: Antimycobacterial activity against Mycobacterium fortuitum ATCC 6841 assessed as bacterial growth inhibition incubated for 72 hrs by resazurin dye based broth microdilution method; type: functional
[18] = system: Mycobacteroides abscessus; assay: Antimycobacterial activity against Mycobacterium abscessus ATCC 19977; type: functional
Escherichia coli [19] = assay: Antibacterial activity against Escherichia coli DC2; type: functional
Pseudomonas aeruginosa [20] = assay: Antibacterial activity against Pseudomonas aeruginosa ATCC 15442 […] assessed as reduction in bacterial growth after 18 to 20 hrs by CLSI-based broth microdilution assay; type: functional; conditions: time 18-20 hrs
Staphylococcus aureus [21] = assay: Antibacterial activity against methicillin-resistant Staphylococcus aureus K147 assessed as reduction in bacterial growth; type: functional
Staphylococcus aureus [22] = assay: Antibacterial activity against methicillin-resistant Staphylococcus aureus SAP0017 assessed as reduction in bacterial growth; type: functional
Bacillus subtilis [23] = assay: Antibacterial activity against Bacillus subtilis NBRC 3513; type: functional
Candida albicans = assay: Antifungal activity against Candida albicans ATCC 10231 assessed as fungal growth inhibition; type: functional
Trypanosoma brucei = assay: Antitrypanosomal activity against Trypanosoma brucei assessed as inhibition of parasite growth incubated for 72 hrs by resazurin reagent fluorimetric analysis; type: functional, organism-based
Leishmania amazonensis = assay: Antileishmanial activity against leishmania amazonensis promastigotes MHOM/BR/77/LTB0016 assessed as assessed as parasite growth inhibition incubated for 72 hrs by Alamar Blue assay; type: functional, organism-based; conditions: MHOM/BR/77/LTB0016, 72 h
Phytophthora capsici = assay: Antifungal activity against Phytophthora capsici; type: functional, organism-based
Monilinia fructigena = assay: Antifungal activity against Monilinia fructigena; type: functional, organism-based
[24] = system: Mycobacterium tuberculosis; assay: Antimycobacterial activity against Mycobacterium tuberculosis H37Rv; type: functional
[25] = system: Mycobacterium tuberculosis; assay: Antimycobacterial activity against Mycobacterium tuberculosis Erdman; type: functional

CC[C@H](O)C#CC#C[C@@H](O)/C=C\CCCCCCCCOC(C)=O [OPLOPANDIOL ACETATE]
MIC (Escherichia coli [1]): > 50 µg/mL

C=C[C@@H](C#CC#C[C@@H](O)CCCCCCCCC)OC(C)=O
IC50 (Leishmania donovani [2]): 1300 nM
IC50 (Plasmodium falciparum [3]): 0.27 µg/mL (≈ 0.887 µM)

C#CC(O)/C=C/C(O)CCCC(O)CC#CC(O)C#CC(O)CCCC(=O)CCCCC/C=C/C(O)CCCCCCCCCCCCCC(O)C(O)C#CC(=O)O (centres undefined)
IC50 (Bacillus subtilis [4]): 12 µg/mL (≈ 14.8 µM)

C=C[C@@H](C#CC#C[C@@H](CCCCCCCCC)NS(C)(=O)=O)OC(C)=O
IC50 (Leishmania donovani [2]): 50 nM
MIC (Streptococcus pyogenes): 8 µM (≈ 3.05 µg/mL)
MIC (Bacillus subtilis [5]): 4 µM (≈ 1.53 µg/mL)

CCCC/C=C/C#CC#CCCCCCCCC(=O)O [EXOCARPIC ACID]
MIC [6]: 20 µg/mL (≈ 72.9 µM)

C=C[C@H](C#CC#C[C@@H](O)CCCCCCCCC)OC(C)=O
IC50 (Leishmania donovani [2]): > 10000 nM
IC50 (Plasmodium falciparum [7]): 8.15 µg/mL (≈ 26.8 µM)

C=C[C@@H](C#CC#C[C@@H](CCCCCCCCC)NCCCC)OC(C)=O
IC50 (Leishmania donovani [2]): 30 nM
Activity (Leishmania donovani [8]): 32%

CCCCCCCCCCCCC1CC1CCCC(O)C#CC#CCO (centres undefined)
IC50 (Pseudomonas aeruginosa [9]): 1800 nM
IC50 [10]: 14000 nM

C#CC(O)/C=C/C(O)CCCC(O)C(O)C#CC(O)C#CCCCC(O)/C=C/CCCCCCCCCCCCCCCCCCCCCC(O)C(O)C#CC(=O)O (centres undefined)
IC50 (Bacillus subtilis [4]): 25 µg/mL (≈ 30.7 µM)

C#CC(O)/C=C/C(O)CCCC(O)C(O)C#CC(O)C#CCCCCC(=O)CCCCC/C=C/C(O)CCCCCCCCCCCCC(O)C(O)C(O)C#CC(=O)O (centres undefined)
IC50 (Bacillus subtilis [4]): 48 µg/mL (≈ 57.9 µM)

C=C[C@@H](O)C#CC#C[C@@H](O)/C=C\CCCCCCC [FALCARINDIOL]
MIC [11]: 1.6 µg/mL (≈ 6.14 µM)
MIC (Staphylococcus aureus [12]): 7.8 µg/mL
MIC (Staphylococcus aureus [13]): 16 µg/mL

C=C[C@H](O)C#CC#CC/C=C/CCCCCCCC
EC50 (Bipolaris sorokiniana): 9 µg/mL (≈ 34.8 µM)
EC50 [14]: 46 µg/mL (≈ 178 µM)
EC50 (Alternaria kikuchiana): 41 µg/mL (≈ 159 µM)

C=C[C@@H](O)C#CC#CC[C@H]1O[C@H]1CCCCCCC
MIC [11]: 6.13 µg/mL (≈ 23.5 µM)
MIC [15]: 25 µg/mL (≈ 96 µM)

C=C[C@@H](O)C#CC#CC/C=C\CCCCCCCC
EC50 (Alternaria kikuchiana): 48 µg/mL (≈ 186 µM)

C=C[C@H](O)C#CC#CC(O)/C=C\CCCCCCC (some centres undefined)
MIC [16]: 4 µg/mL (≈ 15.4 µM)
MIC (Mycolicibacterium phlei): 2 µg/mL (≈ 7.68 µM)
MIC (Mycolicibacterium aurum): 4 µg/mL (≈ 15.4 µM)
MIC [17]: 4 µg/mL (≈ 15.4 µM)
MIC [18]: 2 µg/mL (≈ 7.68 µM)

C=C[C@H](C#CC#C[C@H](O)CCCCCCCCC)OC(C)=O
IC50 (Leishmania donovani [2]): > 10000 nM
IC50 (Plasmodium falciparum [7]): 8.07 µg/mL (≈ 26.5 µM)

C=CC(O)C#CC#CC(O)/C=C\C(O)CCCCCC (centres undefined)
MIC (Escherichia coli [19]): 200 µg/mL (≈ 724 µM)
MIC (Pseudomonas aeruginosa [20]): 200 µg/mL (≈ 724 µM)
MIC (Staphylococcus aureus [21]): 200 µg/mL (≈ 724 µM)
MIC (Staphylococcus aureus [22]): 200 µg/mL (≈ 724 µM)
MIC (Bacillus subtilis [23]): 200 µg/mL (≈ 724 µM)

CCCCCC/C=C\CCCCCCCCC[C@@H](O)C#CC#CCO
IC50 (Pseudomonas aeruginosa [9]): 2600 nM
IC50 [10]: 23000 nM

CCCCCCCC/C=C\CCCCCCCCC[C@@H](O)C#CC#CCO
IC50 (Pseudomonas aeruginosa [9]): 2900 nM
IC50 [10]: 17000 nM

CCCCCCC/C=C\[C@H](O)C#CC#C[C@@H](O)CC [OPLOPANDIOL]
MIC (Candida albicans): 12 µg/mL (≈ 45.7 µM)

C=CC(C#CC#CC(O)CCCCCCCCC)OC(C)=O (centres undefined)
IC50 (Trypanosoma brucei): 460 nM

C=C[C@@H](O)C#CC#CC/C=C/CCCCCCCC
EC50 (Alternaria kikuchiana): 51 µg/mL (≈ 197 µM)

C=CC(O)C#CC#CC(O)/C=C\CCCCCCC (centres undefined)
IC50 (Leishmania amazonensis): 5700 nM

C=CC(O)C#CC#CC(O)c1cccs1 (centres undefined)
EC50 (Phytophthora capsici): 2.1 µg/mL (≈ 9.62 µM)
EC50 (Monilinia fructigena): 4 µg/mL (≈ 18.3 µM)

C=CC(O)C#CC#CC(O)/C=C\CCCCCCCCOC(C)=O (centres undefined)
MIC [24]: 25 µg/mL (≈ 75.2 µM)
MIC [25]: 1.4 µg/mL (≈ 4.21 µM)
